In the test the test system is PAKT/PKB (p-(S473) AKT) in H209 small cell lung carcinoma cells stimulated with Stem Cell Factor. The test can be described thus: PAKT/PKB Cytoblot Assay with H209 cells (SCF-stimulated p-(S473) AKT). The format is cell-based. As to conditions: Homo sapiens, NCI-H209, compound 1 hour, SCF 25 ng/mL 5 minutes. In short, it runs like this:
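H209 SCLC cells kept overnight in RPMI with 0.1% BSA were pretreated 1 h at 37 °C with compound (0.01–10 μM final), then stimulated with SCF 25 ng/mL for 5 min. After formaldehyde/methanol fixation, p-(S473) AKT was detected in-cell with HRP secondary and ECL chemiluminescence, and IC50 was derived.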

[1] abbreviates: group: between 500 nM and 1 μM (units in value).

A value given as a limit tells only on which side of the number the result lay.

`CCCCNC(=O)Nc1cc(CNc2ccccc2C(=O)Nc2ccc3c(c2)OC(F)(F)O3)ccn1` [Example 170, 2-{[(2-{[(butylamino)carbonyl]amino}pyridin-4-yl)methyl]amino}-N-(2,2-difluoro-1,3-benzodioxol-5-yl)benzamide] gave a concentration for half-maximal inhibition (IC50) (group: less than 500 nM) of under 0.5 µM.
On to `Cc1cccc(CNC(=O)Nc2cc(CNc3ccccc3C(=O)Nc3ccc4c(c3)OC(F)(F)O4)ccn2)c1` [Example 171, N-(2,2-difluoro-1,3-benzodioxol-5-yl)-2-({[2-({[(3-methylbenzyl)amino]carbonyl}amino)pyridin-4-yl]methyl}amino)benzamide], for which, under “group: between 1 and 3 μM”, the IC50 was 1 to 3 µM.
In turn, `O=C(NCc1ccccc1)Nc1cc(CNc2ccccc2C(=O)Nc2ccc3c(c2)OC(F)(F)O3)ccn1` [Example 172, 2-{[(2-{[(benzylamino)carbonyl]amino}pyridin-4-yl)methyl]amino]-N-(2,2-difluoro-1,3-benzodioxol-5-yl)benzamide] came in with an IC50 under setting [1] of 0.5 to 1 µM.
As to `O=C(NCc1ccco1)Nc1cc(CNc2ccccc2C(=O)Nc2ccc3c(c2)OC(F)(F)O3)ccn1` [Example 173, N-(2,2-difluoro-1,3-benzodioxol-5-yl)-2-({[2-({[(2-furylmethyl)amino]carbonyl}amino)pyridin-4-yl]methyl}amino)benzamide], the IC50 (group: less than 500 nM) was under 0.5 µM.
Under “group: less than 500 nM”, `CN(C)C(=O)Nc1cc(CNc2ccccc2C(=O)Nc2ccc3c(c2)OC(F)(F)O3)ccn1` [Example 174, N-(2,2-difluoro-1,3-benzodioxol-5-yl)-2-{[(2-{[(dimethylamino)carbonyl]amino}pyridin-4-yl)methyl]amino}benzamide] came in with an IC50 of under 0.5 µM.
In turn, `CS(=O)(=O)Nc1cc(CNc2ccccc2C(=O)Nc2ccc3c(c2)OC(F)(F)O3)ccn1` [Example 175, N-(2,2-difluoro-1,3-benzodioxol-5-yl)-2-[({2-[(methylsulfonyl)amino]pyridin-4-yl}methyl)amino]benzamide] registered an IC50 (group: less than 500 nM) of under 0.5 µM.
Regarding `Cc1csc(Nc2cc(CNc3ccccc3C(=O)Nc3ccc4c(c3)OC(F)(F)O4)ccn2)n1` [Example 176, N-(2,2-difluoro-1,3-benzodioxol-5-yl)-2-[({2-[(4-methyl-1,3-thiazol-2-yl)amino]pyridin-4-yl}methyl)amino]benzamide], the IC50 (group: less than 500 nM) is under 0.5 µM.
Consider `O=C(Nc1ccc2c(c1)OC(F)(F)O2)c1ccccc1NCc1ccnc(CO)c1` [Example 177, N-(2,2-difluoro-1,3-benzodioxol-5-yl)-2-({[2-(hydroxymethyl)pyridin-4-yl]methyl}amino)benzamide], for which the IC50 under setting [1] was 0.5 to 1 µM.

(Values after patent publication US20080293696A1, “2-Aminoarylcarboxamides Useful as Cancer Chemotherapeutic Agents” (Bayer Pharmaceuticals Corporation, priority 2004, published 2008).)
